Assay results from patent US20190008152A1, “PLANT DISEASE CONTROL COMPOSITION AND PLANT DISEASE CONTROL METHOD” (SUMITOMO CHEMICAL COMPANY, LIMITED, priority 2015, published 2019).

What was measured:
[1] = test system: wheat leaf blight fungus; assay: Test Example 3: growth of wheat leaf blight fungus in YBG medium, microtiter plate, absorbance at 550 nm; type: cell-based, Mycosphaerella graminicola; conditions: single use, 18° C., six days
Method: The present compound 1-3 or the present compound 2-1 was dissolved into dimethyl sulfoxide such that each concentration of the present compound 1-3 or the present compound 2-1 was adjusted to one hundred fifty times as much as the concentration indicated in the below-mentioned Table 5. The resultant agent solution was dispensed into a microtiter plate (with 96 wells) in 1 μl portion thereof per well. One hundred forty nine (149) μl of YBG medium (which was prepared by dissolving 10 g of yeast extract, 10 g of Bacto Peptone, and 20 mL of glycerol into 1 L of water, followed by sterilizing the medium) was dispensed into the wells to which the agent solution(s) was/were dispensed. The plate was cultivated at 18° C. for six days, thereby allowing wheat leaf blight fungus to undergo proliferation, and the absorbance at 550 nm of each well of the micro titer plate was then measured to examine a degree of growth of the wheat leaf blight fungus (hereinafter referred to as “treated group”).
Whereas, wheat leaf blight fungus was proliferated similarly to the case of the treated group except that dimethyl sulfoxide was used instead of the agent solution, and the degree of the growth was examined (hereinafter referred to as “untreated group”). The efficacy was calculated from the respective obtained degree of growth by the below-mentioned “Equation 1”.
Efficacy (%)=100×(X−Y)/X Equation 1 […]

[2] = test system: wheat rust fungus (Puccinia recondita); assay: Test Example 4: foliar spray of flowable formulations on wheat, inoculation with wheat rust fungus, lesion area; type: in vivo, Puccinia recondita on wheat (cultivar. Shirogane); conditions: single use
Method: Five (5) parts of the present compound 1-3, 35 parts of a mixture of white carbon and ammonium polyoxyethylene alkyl ether sulfate (the weight ratio of 1:1) and 55 parts of water were mixed, and the mixture was then finely-ground by a wet grinding method to obtain a flowable formulation comprising the present compound 1-3. Separately, the flowable formulation comprising the present compound 2-1 was prepared according to the above-mentioned similar method except that the present compound 2-1 was used instead of the present compound 1-3 to form a flowable formulation comprising the present compound 2-1.
Each of the above-mentioned respective flowable formulations, and the flowable formulation comprising the present compound 1-3 and the present compound 2-1 that was prepared according to the above-mentioned Formulation Example 3 was diluted with water such that each concentration of the respective compounds in the dilution solutions was adjusted to that indicated in Table 6, to prepare the dilution solutions, respectively.
A plastic pot was filled with soil, and thereto wheat (cultivar. Shirogane) was seeded, and the plants were grown in a greenhouse for ten days. […]
From each of the lesion area of the treated group and the untreated group, respectively, the efficacy of the treated group was calculated by the below-mentioned Equation 2. […]

**Q.** Which “Efficacy (%)” value ([1]; concentration in medium 0.0001 ppm) does the source give for Cc1cccc(-n2nnn(C)c2=O)c1COc1ccn(-c2ccc(Cl)cc2)n1 [Present compound 1-3, 1-(2-{[1-(4-chlorophenyl)-1H-pyrazol-3-yl]oxymethyl}-3-methylphenyl)-4-methyl-1,4-dihydrotetrazol-5-one] here?
**A.** Its value is 20%.

**Q.** What about the “Efficacy (%)” value ([1]; concentration in medium 0.01 ppm) of the same compound?
**A.** Its value is 37%.

**Q.** And the “Efficacy (%)” value ([2]; concentration 0.002 ppm)?
**A.** The value was 35%.

**Q.** What about the “Efficacy (%)” value ([2]; concentration 0.01 ppm) of the same compound?
**A.** Its value is 70%.
